Measurements: article PMC5902630, “A Firefly Luciferase Dual Color Bioluminescence Reporter Assay Using Two Substrates To Simultaneously Monitor Two Gene Expression Events” (Scientific Reports, 2018)

What was measured:
[1] = target: PLR1 (Photinus pyralis, UniProt P08659, Y255F/S284T, form not given); assay: bioluminescence burst (maximal light intensity), Michaelis-Menten fit; format: biochemical; settings: 2 mM Mg-ATP, 50 mM Tricine, pH 7.8; read-out: Km (μM) / BtLH2
Description: bioluminescence burst (maximal light intensity), Michaelis-Menten fit on PLR1

[2] = target: PLG3 (Photinus pyralis, UniProt P08659, F250T/L291I/Y340F/F465R, form not given); assay: as above; format: biochemical; settings: 2 mM Mg-ATP, 50 mM Tricine, pH 7.8; read-out: Km (μM) / BtLH2
Description: bioluminescence burst (maximal light intensity), Michaelis-Menten fit on PLG3

Sequence of PLG3 (P08659 whole entry F250T/L291I/Y340F/F465R, form open): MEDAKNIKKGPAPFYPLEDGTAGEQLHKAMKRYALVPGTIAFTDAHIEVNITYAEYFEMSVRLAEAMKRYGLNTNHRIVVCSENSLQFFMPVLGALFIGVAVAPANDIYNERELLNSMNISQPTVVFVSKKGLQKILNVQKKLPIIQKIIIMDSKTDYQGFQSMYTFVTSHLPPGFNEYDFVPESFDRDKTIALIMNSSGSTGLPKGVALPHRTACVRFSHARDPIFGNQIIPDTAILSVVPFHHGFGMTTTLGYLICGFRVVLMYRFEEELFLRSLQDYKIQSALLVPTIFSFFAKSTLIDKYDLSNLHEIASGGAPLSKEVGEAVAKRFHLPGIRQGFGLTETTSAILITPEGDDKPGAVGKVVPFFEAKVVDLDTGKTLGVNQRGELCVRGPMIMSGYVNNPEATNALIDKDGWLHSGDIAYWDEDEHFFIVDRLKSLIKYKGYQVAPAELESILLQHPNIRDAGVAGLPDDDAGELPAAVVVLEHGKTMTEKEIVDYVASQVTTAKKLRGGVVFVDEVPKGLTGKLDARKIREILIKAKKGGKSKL
Sequence of PLR1 (P08659 whole entry Y255F/S284T, form open): as the sequence (P08659 whole entry F250T/L291I/Y340F/F465R, form open) above, with T250F, Y255F, S284T, I291L, F340Y, R465F counted along it

Km [1]: 28 ± 3 µM
Km [2]: 5 ± 1 µM
SMILES: O=C(O)[C@H]1CSC(c2cc3ccc(O)cc3s2)=N1 [BtLH2]
